# Measured values reported in US7632505B2, “Treatment of macrophage mediated disease” (Purdue Research Foundation, priority 2001, dated 2009).
# Assays:
# activated macrophages = test: Biodistribution analysis (gamma counting of harvested tissues) in arthritic rats; assay type: in vivo, rat; conditions: FF 2000 nmoles/kg days 1,2,3,9,11,14 or MTX 0.15 mg days 1,8,15
# Experimental: Arthritis was induced in 150-200 g female Lewis rats (Charles River Laboratories, Inc., Wilmington, Mass.), n=4/dose group. Briefly, 0.5 mg of heat-killed Mycoplasma butericum, suspended in mineral oil (5 mg/ml), was injected on day 0 into the left hind foot of rats following anesthesia with ketamine and xylazine. Disease was allowed to progress for 21 days, and animals were weighed on a daily basis to ensure the status of their health. […] All rats were maintained on a folate-deficient diet (DYETS, Inc., Bethlehem, Pa.) for 3 weeks prior to administration of folate-FITC in order to lower serum folate levels to physiologically relevant concentrations. Control rats were also maintained on a folate-deficient diet but not induced to develop arthritis.
# Seventeen days following induction of the arthritis and three days prior to administration of the imaging agent (EC20), rats destined for macrophage depletion received a single intraperitoneal injection of clodronate liposomes containing 20 mg clodronate. […]
# For biodistribution analysis, rats were euthanized by intraperitoneal injection of nebutal or pentobarbitol sodium. Liver, spleen, heart, lungs, intestine, and kidneys were then harvested and radiation in each tissue was determined by counting in a gamma counter (Packard BioScience Co., Meridian, Conn.).
# [1] = tested on: adjuvant-induced arthritis in rats; test: Adjuvant-induced arthritis, paw swelling (immunotherapy mediated protection); assay type: in vivo, rat; conditions: for inhibition of adjuvant-induced arthritis, left and right paw: Example 14, folate-FITC 3000 nmoles/kg per day, days 1,2,3, osmotic pump, MTX 0.15 mg ip days 1,8,15
# Experimental: Arthritis was induced in 150-200 g female Lewis rats (Charles River Laboratories, Inc., Wilmington, Mass.), n=4/dose group. Briefly, 0.5 mg of heat-killed Mycoplasma butericum, suspended in mineral oil (5 mg/ml), was injected on day 0 into the left hind foot of rats following anesthesia with ketamine and xylazine. Disease was allowed to progress for 21 days, and animals were weighed on a daily basis to ensure the status of their health. […] Control rats were also maintained on a folate-deficient diet but not induced to develop arthritis.
# The efficacy of a folate-FITC conjugate (folate-fluorescein isothiocyanate conjugate) against adjuvant-induced arthritis in rats was investigated. Each rat used in the experiment was immunized at the base of the tail with FITC-KLH (150 μg) to induce antibodies against FITC on days −38 and −10 before administration of Mycoplasma butericum (adjuvant) to induce arthritis. The immunization of FITC-KLH was done in combination with an adjuvant (i.e., such as TITERMAX® GOLD (150 μg), Alum (150 μg), or GPI-100 (150 μg) which are all adjuvants to induce antibodies against FITC as opposed to the adjuvant used to induce arthritis). The immunized animals were then injected on day 0 in the left foot pad with 0.5 mg of heat-killed Mycoplasma butyricum (adjuvant) to initiate development of arthritis. Then on days 1, 2, 3, 9, 11, and 14, post-adjuvant (Mycoplasma butyricum) injection, the rats were injected intraperitoneally with either saline (control rats) or 2000 nmoles/kg of folate-FITC (FF). Calipers were used to measure left and right foot dimensions daily.
# Methotrexate (MTX) was administered at a dose of 0.15 mg by intraperitoneal injection one time per day on days 1, 8, and 15 after adjuvant administration. MTX was used in place of folate-FITC for animals treated with MTX.
# Other animals were treated with 0.75 mg of MTX (FF+mid) or 1.5 mg of MTX (FF+high).
# liver macrophages = test: Flow cytometry of folate-FITC binding to disaggregated liver cells (ED2 macrophage marker); assay type: cell-based, rat
# Text: The protocols described in Examples 2, 4, 6 and 7 were used. To further confirm that the elevated uptake of EC20 in livers of arthritic rats is due to a macrophage population, livers were resected from collagenase-perfused rats and their disaggregated cells examined for folate conjugate uptake, using folate-FITC as a fluorescent marker for FR expression.
# [2] = tested on: Mac-1+ peripheral blood cells
# Text: (§1) Using an antibody specific for granulocytes, we also examined whether tissue infiltrating neutrophils might take up folate conjugates.
# [3] = tested on: tissue infiltrating neutrophils
# Text: as §1
# [4] = Example 8, 2000 nmoles/kg ip days 1,2,3,9,11,14, FITC-immunized rats
structure (smiles),measurement,setting,value
"CN(Cc1cnc2nc(N)nc(N)c2n1)c1ccc(C(=O)N[C@@H](CCC(=O)O)C(=O)O)cc1 [MTX, Methotrexate, reference compound]",effect of treatment on EC20 organ uptake,activated macrophages,prevent EC20 uptake in all organs examined except the kidney
same,"inhibition of adjuvant-induced arthritis, left and right paw",[1],inhibits adjuvant-induced arthritis as well as MTX
"Nc1nc2ncc(CNc3ccc(C(=O)NC(CCC(=O)NCCNC(=S)Nc4ccc(C(=O)O)c(-c5c6ccc(=O)cc-6oc6cc(O)ccc56)c4)C(=O)O)cc3)nc2c(=O)[nH]1 (stereo not shown) [folate-FITC, folate-fluorescein isothiocyanate]",effect of treatment on EC20 organ uptake,activated macrophages,prevent EC20 uptake in all organs examined except the kidney
same,activated macrophages invading feet after about 10 days (foot dimensions),[1]; [4],eliminated or reduced
same,early (neutrophil) phase of paw swelling of adjuvant-injected feet,[1]; [4],no impact on this phase of paw swelling
same,"inhibition of adjuvant-induced arthritis, left and right paw",[1],inhibits adjuvant-induced arthritis as well as MTX
same,prolonged treatment vs 3 initial doses,"[1]; Example 15, 3000 nmoles/kg, days 1,2,3,9,11,14 vs days 1,2,3",prolonged treatment with FF is more effective than 3 initial doses
same,"inhibition of adjuvant-induced arthritis, right (uninjected) paw volume","[1]; Example 15, FF 3000, 600 and 120 nmoles/kg",inhibits adjuvant-induced arthritis in the right paw
same,binding in presence of excess free folic acid,liver macrophages; 1 mM folic acid,suppressed
same,liver macrophages that bound folate-FITC,"liver macrophages; arthritic rats, 1 μM folate-FITC",70%
same,FITC intensity of arthritic macrophages,liver macrophages; vs macrophages from healthy livers,higher than that of macrophages from healthy livers
same,binding to Mac-1+ peripheral blood cells,[2],no binding affinity
same,binding to liver neutrophils,[3],no binding capacity
